The values below come from patent publication US7060834B2, “N-type calcium channel antagonists for the treatment of pain” (AstraZeneca AB, priority 2001, dated 2006).

As usually defined, the IC50 is the concentration that inhibits the measured activity by half.

One assay deals with N-type calcium channel (Homo sapiens, UniProt Q00975). The experiment in a line: N-Channel FLIPR (Fluorescent Laser Imaging Plate Reader) assay. The note with it: inhibition of 80 mM K+ evoked calcium flux, differentiated IMR32 cells. Format: cell-based.
Chain of N-type calcium channel (Q00975 whole entry): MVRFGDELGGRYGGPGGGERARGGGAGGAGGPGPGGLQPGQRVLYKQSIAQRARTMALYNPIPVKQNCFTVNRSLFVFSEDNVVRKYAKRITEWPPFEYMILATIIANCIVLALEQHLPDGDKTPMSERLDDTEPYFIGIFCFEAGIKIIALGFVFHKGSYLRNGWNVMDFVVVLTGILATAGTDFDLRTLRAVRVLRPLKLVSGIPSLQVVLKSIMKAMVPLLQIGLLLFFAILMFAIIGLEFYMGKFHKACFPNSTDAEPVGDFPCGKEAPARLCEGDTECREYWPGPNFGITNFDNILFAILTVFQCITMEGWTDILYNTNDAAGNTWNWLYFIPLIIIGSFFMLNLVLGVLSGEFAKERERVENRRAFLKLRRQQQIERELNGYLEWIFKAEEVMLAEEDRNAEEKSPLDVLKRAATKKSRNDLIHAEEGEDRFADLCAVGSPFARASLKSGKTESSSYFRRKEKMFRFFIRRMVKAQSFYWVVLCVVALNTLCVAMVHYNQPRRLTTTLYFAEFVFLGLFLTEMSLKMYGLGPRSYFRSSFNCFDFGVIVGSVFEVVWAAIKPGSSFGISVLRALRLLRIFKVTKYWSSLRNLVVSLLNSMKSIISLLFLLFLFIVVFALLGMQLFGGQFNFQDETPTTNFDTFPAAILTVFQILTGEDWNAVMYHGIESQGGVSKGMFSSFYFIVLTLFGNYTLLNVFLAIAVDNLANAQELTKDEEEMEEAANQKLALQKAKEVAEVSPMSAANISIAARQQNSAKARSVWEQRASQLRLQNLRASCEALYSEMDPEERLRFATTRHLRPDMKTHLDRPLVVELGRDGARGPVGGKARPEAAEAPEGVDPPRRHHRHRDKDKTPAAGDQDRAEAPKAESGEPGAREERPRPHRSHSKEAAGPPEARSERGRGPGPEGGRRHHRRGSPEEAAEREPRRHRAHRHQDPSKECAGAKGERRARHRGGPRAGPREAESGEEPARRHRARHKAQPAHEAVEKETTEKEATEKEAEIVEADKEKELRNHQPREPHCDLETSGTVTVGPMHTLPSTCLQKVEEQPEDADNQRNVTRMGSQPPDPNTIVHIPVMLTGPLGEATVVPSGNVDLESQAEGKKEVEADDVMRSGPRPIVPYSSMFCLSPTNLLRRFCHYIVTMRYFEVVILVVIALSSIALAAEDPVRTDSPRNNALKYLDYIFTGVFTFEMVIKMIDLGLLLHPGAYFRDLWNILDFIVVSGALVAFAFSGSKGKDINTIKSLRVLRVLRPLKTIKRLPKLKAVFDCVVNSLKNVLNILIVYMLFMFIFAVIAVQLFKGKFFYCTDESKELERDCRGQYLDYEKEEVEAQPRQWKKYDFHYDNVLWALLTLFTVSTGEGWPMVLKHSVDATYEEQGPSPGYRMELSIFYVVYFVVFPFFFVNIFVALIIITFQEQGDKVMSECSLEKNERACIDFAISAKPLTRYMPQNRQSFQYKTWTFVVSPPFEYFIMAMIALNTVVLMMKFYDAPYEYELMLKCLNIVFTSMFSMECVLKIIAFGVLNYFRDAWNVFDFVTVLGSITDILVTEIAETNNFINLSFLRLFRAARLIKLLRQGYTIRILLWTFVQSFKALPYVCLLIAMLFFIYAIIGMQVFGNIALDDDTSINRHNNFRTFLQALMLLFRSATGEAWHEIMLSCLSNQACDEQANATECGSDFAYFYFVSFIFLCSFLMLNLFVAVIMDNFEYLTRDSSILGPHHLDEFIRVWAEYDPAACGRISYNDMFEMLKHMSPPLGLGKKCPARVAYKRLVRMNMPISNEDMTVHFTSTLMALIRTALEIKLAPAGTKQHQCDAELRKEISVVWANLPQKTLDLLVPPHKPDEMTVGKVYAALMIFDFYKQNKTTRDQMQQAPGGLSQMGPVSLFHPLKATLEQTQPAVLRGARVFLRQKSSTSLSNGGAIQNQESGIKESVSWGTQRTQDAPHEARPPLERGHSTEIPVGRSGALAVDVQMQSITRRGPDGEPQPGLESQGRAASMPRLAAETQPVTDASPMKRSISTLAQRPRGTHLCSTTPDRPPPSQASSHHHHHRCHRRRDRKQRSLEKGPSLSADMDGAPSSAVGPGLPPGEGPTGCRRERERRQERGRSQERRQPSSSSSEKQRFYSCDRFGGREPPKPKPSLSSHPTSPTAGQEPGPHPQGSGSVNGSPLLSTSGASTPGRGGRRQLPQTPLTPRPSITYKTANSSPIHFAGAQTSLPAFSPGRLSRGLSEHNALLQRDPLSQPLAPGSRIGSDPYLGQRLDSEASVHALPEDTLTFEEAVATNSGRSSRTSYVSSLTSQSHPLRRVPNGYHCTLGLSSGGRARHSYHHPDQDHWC
Chain of N-type calcium channel (P54289 25-1103 partner): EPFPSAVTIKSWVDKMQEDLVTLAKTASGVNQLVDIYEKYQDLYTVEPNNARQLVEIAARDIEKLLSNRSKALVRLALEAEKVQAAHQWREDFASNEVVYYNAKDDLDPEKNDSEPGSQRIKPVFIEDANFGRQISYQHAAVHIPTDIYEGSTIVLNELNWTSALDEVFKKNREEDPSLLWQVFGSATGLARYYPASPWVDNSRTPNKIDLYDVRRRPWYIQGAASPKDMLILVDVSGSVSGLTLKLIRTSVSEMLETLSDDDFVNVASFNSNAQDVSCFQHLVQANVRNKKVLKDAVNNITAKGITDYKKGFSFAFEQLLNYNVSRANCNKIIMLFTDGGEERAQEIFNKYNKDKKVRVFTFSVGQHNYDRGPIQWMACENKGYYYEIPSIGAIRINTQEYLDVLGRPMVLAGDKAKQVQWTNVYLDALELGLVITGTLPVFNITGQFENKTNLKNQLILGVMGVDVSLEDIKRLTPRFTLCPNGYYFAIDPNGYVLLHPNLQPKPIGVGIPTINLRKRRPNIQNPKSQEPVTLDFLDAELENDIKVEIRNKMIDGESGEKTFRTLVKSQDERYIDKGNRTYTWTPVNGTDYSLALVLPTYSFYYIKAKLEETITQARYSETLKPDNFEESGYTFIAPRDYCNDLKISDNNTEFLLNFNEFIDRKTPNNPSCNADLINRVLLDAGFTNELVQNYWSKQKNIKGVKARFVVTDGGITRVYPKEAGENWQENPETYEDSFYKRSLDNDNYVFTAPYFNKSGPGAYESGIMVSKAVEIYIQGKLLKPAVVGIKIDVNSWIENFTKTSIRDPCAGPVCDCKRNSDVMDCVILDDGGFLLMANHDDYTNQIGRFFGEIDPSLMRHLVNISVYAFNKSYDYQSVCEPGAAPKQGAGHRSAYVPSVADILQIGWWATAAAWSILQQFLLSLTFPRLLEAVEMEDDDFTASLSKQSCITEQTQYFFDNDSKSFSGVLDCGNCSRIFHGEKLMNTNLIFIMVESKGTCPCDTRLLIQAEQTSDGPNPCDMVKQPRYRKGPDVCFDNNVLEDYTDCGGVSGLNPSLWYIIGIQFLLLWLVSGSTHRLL
Chain of N-type calcium channel (P54284 whole entry partner): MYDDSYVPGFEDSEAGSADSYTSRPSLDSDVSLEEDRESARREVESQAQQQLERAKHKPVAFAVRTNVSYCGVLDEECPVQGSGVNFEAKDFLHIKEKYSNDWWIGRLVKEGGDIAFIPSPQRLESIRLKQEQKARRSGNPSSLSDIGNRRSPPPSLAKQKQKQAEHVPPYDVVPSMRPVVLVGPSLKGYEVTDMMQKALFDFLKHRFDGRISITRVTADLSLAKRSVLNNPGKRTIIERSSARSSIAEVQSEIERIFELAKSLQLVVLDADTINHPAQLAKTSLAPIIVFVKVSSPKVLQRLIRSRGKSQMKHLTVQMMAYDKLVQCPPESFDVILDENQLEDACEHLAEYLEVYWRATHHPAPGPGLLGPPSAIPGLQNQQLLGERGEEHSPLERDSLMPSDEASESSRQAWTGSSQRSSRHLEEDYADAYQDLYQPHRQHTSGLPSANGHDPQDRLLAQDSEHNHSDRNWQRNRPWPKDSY
Assay [1] has as its system formalin-induced nocifensive behaviours. The experiment in a line: Formalin test. Format: in vivo, rats. Here is the method: II. Formalin Test. The Formalin test assesses the inhibitory effects of orally administered N-type calcium channel antagonists on formalin-induced nocifensive behaviours in rats. The formalin test is a well established pain test (Dubuisson and Dennis, 1977; Wheeler-Aceto et al., 1990; Coderre et al., 1993). This test consists of two distinct phases of formalin-induced behavior. The first phase response, occurring between 0 to 5 minutes, is caused by acute nociception to the noxious chemical (formalin) injected into the paw. This is followed by a quiescent period of between 5 to 15 min post injection. A second phase response, occurring after 15 minutes and lasting up to 60 minutes, is caused by sensitization of the central neurons in the dorsal horn. Central sensitization augments the noxious afferent input and a stronger pain barrage is transmitted into the brain. Inhibition of the second phase response is indicative of a central mechanism of drug action. The procedure for the formalin test is as follows: male rats are placed in a Plexiglas chamber and observed for 30-45 min. to observe their baseline activity. Multiple groups of animals are pretreated with either vehicle or different doses of a test compound. Animals are dosed with the drug of interest either 40 min., if by the intraperitoneal route, or 90 min., if by the oral route, prior to injection of formalin into a hind paw (under the dorsal skin; 0.05 mL of sterile 5% formalin). The number of paw flinches and licks during first phase (0-5 min.) and second phase (20-35 min.) are scored and recorded. […] and lick responses are calculated as percentage of inhibition compared with the mean score of a saline control group. Drug potencies are expressed as the dose which causes 50% of the maximum inhibitory effect (“ID50”). Student t-tests are used for statistical analysis to determine the significance of drug effects. Compounds are considered active based on their ability to inhibit the flinch response.

The next assay has as its system chemo-nociception. As to conditions: phenylbenzoquinone-induced writhing and formalin test; cited from earlier work. (In general: In writhing tests, fewer writhes than in controls are read as antinociception.)

On to `CC(C)(C)CNc1cc(Nc2ccc(F)c(Cl)c2)nc2ccccc12` [Example 2, N2(3-chloro-4-fluoro-phenyl)-N4(2,2-dimethyl-propyl)-quinoline-2,4-diamine], for which the 50% inhibitory concentration (IC50) at N-type calcium channel is 5870 nM. Besides, in assay [1] ((76, 40, IP)), the “Formalin test % inhibition (dose, time, route)” value (from here on “Formalin test % inhibition”) is given as 39 (76, 40, IP) %.
In the case of `COc1ccc(Nc2cc(NCC(C)(C)C)c3ccccc3n2)cc1OC` [Example 3, N2(3,4-dimethoxy-phenyl)-N4(2,2-dimethyl-propyl)-quinoline-2,4-diamine], the 50% inhibitory concentration (IC50) at N-type calcium channel is 1720 nM. For the same molecule, in assay [1] ((75, 40, IP)), the “Formalin test % inhibition” value is recorded as 22 (75, 40, IP) %.
As for `CC(C)(C)CNc1cc(Nc2ccccc2N2CCOCC2)nc2ccccc12` [Example 7, N4(2,2-dimethyl-propyl)-N2(2-morpholin-4-yl-phenyl)-quinoline-2,4-diamine], the IC50 on N-type calcium channel stood at 670 nM. For the same molecule, the “Formalin test % inhibition” value in assay [1] ((59, 40, IP)) is 24 (59, 40, IP) %.
`COc1ccc(Nc2cc(NCC(C)(C)C)c3cccc(F)c3n2)cc1OC` [Example 8, N2(3,4-Dimethoxy-phenyl)-N4(2,2-dimethyl-propyl)-8-fluoro-quinoline-2,4-diamine]: the IC50 on N-type calcium channel came to 2820 nM.
With `CC(C)(C)CNc1cc(Nc2ccc3ncsc3c2)nc2c(F)cccc12` [Example 11, N2-Benzothiazol-6-yl-N4(2,2-dimethyl-propyl)-8-fluoro-quinoline-2,4-diamine], the half-inhibitory concentration (IC50) at N-type calcium channel is 6870 nM.
With `COc1ccccc1CC(=N)N1C[C@@H]2C(=O)CCC(c3ccccc3)(c3ccccc3)[C@@H]2C1` [RP 67,580], the analgesia result with chemo-nociception was “produced analgesia with potency comparable to that of morphine”.
